This assay has as its target T1, GLP-1R (Homo sapiens, UniProt P43220).
T1 construct: host or cells: GLP-1R CRE-bla CHO-K1 cells
Nature of the assay: EC20 GLP-1(9-36) PAM cAMP assay: dose response of compound in the presence of fixed concentration of GLP-1(9-36). In kind it is cell-based. To be noted: GLP-1R CRE-bla CHO-K1 cells, read-out: EC20 GLP-1(9-36) PAM EC50. In a few lines: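 GLP-1R CRE-bla CHO-K1 cells treated 30 min at 37 °C with 12-point compound dose response plus fixed EC20 GLP-1(9-36), with IBMX, in HBSS/HEPES/0.1% BSA pH 7.4. Total cAMP measured by luminescent detection against standard curve; EC50 and Emax from non-linear regression.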
A general note: Cyclic AMP is a second messenger, typically raised through Gs and lowered through Gi signalling.

[1] abbreviates: dose response of compound in presence of fixed concentration of GLP-1(9-36).
Where [2] appears, read: compound dose response with fixed concentration of GLP-1(9-36).

pEC50: −log10 of the molar value. Read-outs that look alike come from different tables or passages of the source.

T1 sequence (P43220 24-463): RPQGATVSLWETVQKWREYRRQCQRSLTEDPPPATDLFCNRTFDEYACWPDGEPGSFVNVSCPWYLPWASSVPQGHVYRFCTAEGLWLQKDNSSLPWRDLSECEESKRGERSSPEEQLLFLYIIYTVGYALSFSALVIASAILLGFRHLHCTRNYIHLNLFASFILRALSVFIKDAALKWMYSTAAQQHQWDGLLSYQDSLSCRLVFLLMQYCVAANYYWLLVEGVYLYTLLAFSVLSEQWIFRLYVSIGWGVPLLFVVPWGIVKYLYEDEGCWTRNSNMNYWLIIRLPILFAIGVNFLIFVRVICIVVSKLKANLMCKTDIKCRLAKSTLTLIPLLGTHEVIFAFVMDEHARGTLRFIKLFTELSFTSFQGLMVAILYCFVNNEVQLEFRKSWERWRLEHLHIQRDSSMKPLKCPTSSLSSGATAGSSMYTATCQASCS
T1 sequence (P01275 100-127 partner limits assumed): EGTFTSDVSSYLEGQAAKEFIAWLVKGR

With `CCCCCCCOc1ccc(-c2cnc(-c3ccc(C[C@H](NC(=O)c4ccc(C(C)(C)C)s4)C(=O)N4CCC(C(=O)O)CC4)cc3)nc2)cc1` [Compound 448], the negative logarithm of the EC50 (pEC50) (usually the EC50 on a negative log10 scale, so that one unit is a factor of ten) under setting [1] is greater than 6.10.

For the compound `CCCCCCCOc1ccc(-c2cnc(-c3ccc(C[C@H](NC(=O)/C=C/c4ccc(OC)cc4)C(=O)N4CC(C(=O)O)C4)cc3)nc2)cc1` [Compound 1103], the negative-log EC50 (pEC50) under setting [1] was 5.60 to 6.10.

Consider `CCCCCCCOc1ccc(-c2cnc(-c3ccc(C[C@H](NC(=O)c4ccc(C(C)(C)C)s4)C(=O)N[C@@H](CC(=O)O)C(=O)NC)cc3)nc2)cc1` [Compound 526], for which, under setting [1], the pEC50 is greater than 6.10.

On to `CCCCCCCOc1ccc(-c2cnc(-c3ccc(C[C@H](NC(=O)c4ccc(C(C)(C)C)cc4)C(=O)N[C@@H](CC(=O)OCc4ccccc4)C(=O)O)cc3)nc2)cc1` [Compound 502, (S)-4-(benzyloxy)-2-((S)-2-(4-(tert-butyl)benzamido)-3-(4-(5-(4-(heptyloxy)phenyl)pyrimidin-2-yl)phenyl)propanamido)-4-oxobutanoic acid], for which the pEC50 under setting [1] was greater than 6.10. As for `CCCCCCCOc1ccc(-c2cnc(-c3ccc(C[C@H](NC(=O)c4ccc(C(C)(C)C)cc4)C(=O)N[C@@H](C)C(=O)O)cc3)nc2)cc1` [Compound 400], the negative logarithm of the EC50 (pEC50) under setting [1] is greater than 6.10. For the compound `CCCCCCCOc1ccc(-c2cnc(-c3ccc(C[C@H](NC(=O)c4ccc(C(C)(C)C)s4)C(=O)NC(C(=O)O)C(O)C4CC4)cc3)nc2)cc1` (stereo partly shown) [Compound 908], the pEC50 under setting [1] is 5.60 to 6.10. Regarding `CCCCCCCOc1ccc(-c2cnc(-c3ccc(C[C@H](NC(=O)c4ccc(C(C)(C)C)s4)C(=O)NC(C(=O)O)C(O)c4cccc(Cl)c4)cc3)nc2)cc1` (stereo partly shown) [Compound 902], the negative-log EC50 (pEC50) under setting [1] is 5.30 to 5.60.

Consider `C[C@@H](NC(=O)[C@H](Cc1ccc(-c2ncc(/C=C/c3cc(F)cc(F)c3)cn2)cc1)NC(=O)c1ccc(C(C)(C)C)s1)C(=O)O` [Compound 1256], for which the negative logarithm of the EC50 (pEC50) under setting [2] is 5.00 to 5.30. As to `CCCCCCCOc1ccc(-c2cnc(-c3ccc(C[C@H](NC(=O)c4ccc(OCC)cc4)C(=O)NC(C(=O)O)C(O)c4ccccc4)cc3)nc2)cc1` (stereo partly shown) [Compound 949], the pEC50 under setting [1] is 5.60 to 6.10. Take `CC[C@H]1CC[C@H](c2ccc(-c3cnc(-c4ccc(C[C@H](NC(=O)c5ccc(CC(C)C)cc5)C(=O)O)cc4)nc3)cc2)CC1` [Compound 1383]: under setting [2], the negative-log EC50 (pEC50) was 5.60 to 6.10. As to `CCCCCCCOc1ccc(-c2cnc(-c3ccc(C[C@H](NC(=O)c4ccc(C(C)(C)C)cc4)C(=O)N4C[C@@H](O)C[C@H]4C(=O)O)cc3)nc2)cc1` [Compound 587], under setting [1], the pEC50 was greater than 6.10. For `CCc1ccc(C(=O)N[C@@H](Cc2ccc(-c3ncc(-c4ccc(OCCCC(C)C)cc4)cn3)cc2)C(=O)N2CC(C(=O)O)C2)cc1` [Compound 1228], under setting [2], the negative-log EC50 (pEC50) was 5.60 to 6.10. As to `CCCCCCCOc1ccc(-c2cnc(-c3ccc(C[C@H](NC(=O)c4ccc(C(C)(C)C)s4)C(=O)N[C@@H](CC(=O)NS(C)(=O)=O)C(=O)O)cc3)nc2)cc1` [Compound 523], the pEC50 under setting [1] was greater than 6.10.

For `CCCCCCCOc1ccc(-c2cnc(-c3ccc(C[C@H](NC(=O)c4ccc(C(C)(C)C)s4)C(=O)NC4CC(C(=O)O)C4)cc3)nc2)cc1` (stereo partly shown) [Compound 602], the pEC50 under setting [1] was greater than 6.10.

With `CC(C)(C)c1ccc(C(=O)N[C@@H](Cc2ccc(-c3ncc(N4CCC(c5ccc(C(F)(F)F)cc5)CC4)cn3)cc2)C(=O)N2CC(C(=O)O)C2)s1` [Compound 1481], the negative logarithm of the EC50 (pEC50) under setting [2] was greater than 6.10.

In the case of `CCCCCCCOc1ccc(-c2cnc(-c3ccc(C[C@H](NC(=O)c4ccc(C(C)(C)C)cc4)C(=O)N[C@@H](CC(=O)O)C(=O)N(C)CCN(C)C)cc3)nc2)cc1` [Compound 505], the negative-log EC50 (pEC50) under setting [1] was 5.60 to 6.10. In the case of `CCC[C@H]1CC[C@H](C2CCN(c3cnc(-c4ccc(C[C@H](NC(=O)c5ccc(C)cc5)C(=O)N5CC(C(=O)O)C5)cc4)nc3)CC2)CC1` [Compound 1528], the negative-log EC50 (pEC50) under setting [2] is 5.60 to 6.10. As to `CCCCCCCOc1ccc(-c2cnc(-c3ccc(C[C@H](NC(=O)c4ccc(OCC)cc4)C(=O)N4CC(C(=O)O)C4)cc3)nc2)cc1` [Compound 1114], the pEC50 under setting [1] was 5.60 to 6.10. Regarding `CCCCCCCOc1ccc(-c2cnc(-c3ccc(C[C@H](NC(=O)Cc4ccc(OCCCC)cc4)C(=O)N4CC[C@H](C(=O)O)C4)cc3)nc2)cc1` [Compound 1095], the pEC50 under setting [1] was 5.30 to 5.60. With `CCC[C@H]1CC[C@H](C2CCN(c3cnc(-c4ccc(C[C@H](NC(=O)c5ccc(C(C)(C)C)s5)C(=O)N[C@H](C)C(N)=O)cc4)nc3)CC2)CC1` [Compound 1441], the pEC50 under setting [2] was 5.60 to 6.10.

Take `CCC[C@H]1CC[C@H](C2CCN(c3cnc(-c4ccc(C[C@H](NC(=O)c5ccc(C(C)(C)C)s5)C(=O)N[C@@H](CO)C(=O)O)cc4)nc3)CC2)CC1` [Compound 1467]: under setting [2], the pEC50 was greater than 6.10. With `CCCCCCCOc1ccc(-c2cnc(-c3ccc(C[C@H](NC(=O)c4ccc(CC(C)C)s4)C(=O)N4CC(C(=O)O)C4)cc3)nc2)cc1` [Compound 1119], under setting [1], the negative-log EC50 (pEC50) was 5.60 to 6.10.

As to `Cc1ccc(-c2ccc(-c3cnc(-c4ccc(C[C@H](NC(=O)c5ccc(C(C)(C)C)s5)C(=O)N5CC(C(=O)O)C5)cc4)nc3)c(F)c2)cc1Cl` [Compound 1196], the pEC50 under setting [1] is greater than 6.10. Regarding `C[C@@H](NC(=O)[C@H](Cc1ccc(-c2ncc(-c3ccc(OCc4ccccc4)c(Cl)c3)cn2)cc1)NC(=O)c1ccc(C(C)(C)C)s1)C(=O)O` [Compound 1001], the pEC50 under setting [1] is 5.30 to 5.60. On the same count and under the same terms, for `CCCCCCCOc1ccc(-c2cnc(-c3ccc(C[C@H](NC(=O)c4ccc(C(C)(C)C)s4)C(=O)N[C@@H](C(=O)O)C(C)C)cc3)nc2)cc1` [Compound 889] the value was 5.60 to 6.10; for `CCCCCCCOc1ccc(-c2cnc(-c3ccc(C[C@H](NC(=O)c4ccc(C(C)(C)C)cc4)C(=O)NC(Cc4ccc(Cl)cc4)C(=O)O)cc3)nc2)cc1` (stereo partly shown) [Compound 564], 5.60 to 6.10. Take `CC(C)(C)c1ccc(COc2ccc(-c3cnc(-c4ccc(C[C@H](NC(=O)c5ccc(C(C)(C)C)cc5)C(=O)NCCC(=O)O)cc4)nc3)cc2)cc1` [Compound 713]: under setting [1], the pEC50 was 5.60 to 6.10. Regarding `C=CCCOc1ccc(-c2cnc(-c3ccc(C[C@H](NC(=O)c4ccc(C(C)(C)C)cc4)C(=O)NCCC(=O)O)cc3)nc2)cc1` [Compound 694], the negative logarithm of the EC50 (pEC50) under setting [1] is 5.30 to 5.60. With `COc1ccc2cc(-c3cnc(-c4ccc(C[C@H](NC(=O)c5ccc(C(C)(C)C)s5)C(=O)N[C@H](C)C(=O)O)cc4)nc3)ccc2c1` [Compound 997], the negative logarithm of the EC50 (pEC50) under setting [1] is 5.00 to 5.30. As for `CC(C)(C)c1ccc(C(=O)N[C@@H](Cc2ccc(-c3ncc(-c4ccc(OC(F)=C(F)F)cc4)cn3)cc2)C(=O)NCCC(=O)O)cc1` [Compound 691], the pEC50 under setting [1] is 5.30 to 5.60. For the compound `CCCCOc1ccc(CC(=O)N[C@@H](Cc2ccc(-c3ncc(-c4ccc([C@H]5CC[C@H](CC)CC5)cc4)cn3)cc2)C(=O)N2CC(C(=O)O)C2)cc1` [Compound 1161], under setting [1], the pEC50 is 5.60 to 6.10. Still for that read-out and setting: next, `CCCCCCCOc1ccc(-c2cnc(-c3ccc(C[C@H](NC(=O)c4ccc(C(C)(C)C)s4)C(=O)N[C@@H](CC)C(=O)O)cc3)nc2)cc1` [Compound 401]: greater than 6.10; `CCCCCCCOc1ccc(-c2cnc(-c3ccc(C[C@H](NC(=O)c4ccc(C(C)(C)C)s4)C(=O)NC(C(=O)O)C(OC)c4ccccc4)cc3)nc2)cc1` (stereo partly shown) [Compound 890]: 5.60 to 6.10. As for `CCCCCCOc1ccc(-c2cnc(-c3ccc(C[C@H](NC(=O)c4ccc(C(C)(C)C)cc4)C(=O)NCCC(=O)O)cc3)nc2)cc1` [Compound 490], the negative logarithm of the EC50 (pEC50) under setting [1] is 5.60 to 6.10. In the case of `COc1ccc(-c2cnc(-c3ccc(C[C@H](NC(=O)c4ccc(C(C)(C)C)cc4)C(=O)N[C@H](C)C(=O)O)cc3)nc2)cc1` [Compound 800], the pEC50 under setting [1] was 5.00 to 5.30. With `CCCCCCCOc1ccc(-c2cnc(-c3ccc(C[C@H](NC(=O)c4ccc(C(C)(C)C)s4)C(=O)N4CCC(NC)CC4)cc3)nc2)cc1` [Compound 464], under setting [1], the negative-log EC50 (pEC50) was 5.00 to 5.30. For `CCCCCCCOc1ccc(-c2cnc(-c3ccc(C[C@H](NC(=O)c4ccc(C(C)(C)C)cc4)C(=O)N4C[C@H](N(C)C)C[C@H]4C(=O)O)cc3)nc2)cc1` [Compound 622], under setting [1], the negative logarithm of the EC50 (pEC50) is 5.60 to 6.10. Regarding `CC(C)(C)c1ccc(C(=O)N[C@@H](Cc2ccc(-c3ncc(-c4ccc(-c5ccc(C6CC6)cc5)cc4F)cn3)cc2)C(=O)N2CC(C(=O)O)C2)s1` [Compound 1209], the negative logarithm of the EC50 (pEC50) under setting [2] was greater than 6.10. In the case of `CCCCCCCOc1ccc(-c2cnc(-c3ccc(C[C@H](NC(=O)c4ccc(OC(C)C)cc4)C(=O)NC(C(=O)O)C(O)c4ccccc4)cc3)nc2)cc1` (stereo partly shown) [Compound 950], under setting [1], the negative logarithm of the EC50 (pEC50) is 5.60 to 6.10.

Take `CC[C@H]1CC[C@H](c2ccc(-c3cnc(-c4ccc(C[C@H](NC(=O)c5ccc(C(C)(C)C)cc5)C(=O)N5CC(C(=O)O)C5)cc4)nc3)cc2)CC1` [Compound 1170]: the negative-log EC50 (pEC50) under setting [1] is greater than 6.10.

For `CCCCCCCOc1ccc(-c2cnc(-c3ccc(C[C@H](NC(=O)c4ccc(C(C)(C)C)s4)C(=O)NC(C(=O)O)C(O)c4ccc(C)cc4)cc3)nc2)cc1` (stereo partly shown) [Compound 900], the pEC50 under setting [1] is 5.60 to 6.10.

Regarding `CCC[C@H]1CC[C@H](C2CCN(c3cnc(-c4ccc(C[C@H](NC(=O)c5ccc(C(C)(C)C#N)cc5)C(=O)N5CC(C(=O)O)C5)cc4)nc3)CC2)CC1` [Compound 1526], the pEC50 under setting [2] was greater than 6.10. Take `CCCCCCCOc1ccc(-c2cnc(-c3ccc(C[C@H](NC(=O)c4ccc(C(C)(C)C)s4)C(=O)NC(Cc4nccs4)C(=O)O)cc3)nc2)cc1` (stereo partly shown) [Compound 592]: under setting [1], the pEC50 was 5.60 to 6.10. Take `CC[C@H]1CC[C@H](c2ccc(-c3cnc(-c4ccc(C[C@H](NC(=O)c5ccc(C(C)(C)C#N)s5)C(=O)O)cc4)nc3)cc2)CC1` [Compound 1373]: the pEC50 under setting [2] is greater than 6.10. For `CCCCCC(=O)c1ccc(-c2cnc(-c3ccc(C[C@H](NC(=O)c4ccc(C(C)(C)C)cc4)C(=O)N[C@H](C)C(=O)O)cc3)nc2)cc1` [Compound 725], the negative-log EC50 (pEC50) under setting [1] is 5.60 to 6.10.

For `CCCCCCCOc1ccc(-c2cnc(-c3ccc(C[C@H](NC(=O)c4ccc(CC)s4)C(=O)NC(C(=O)O)C(O)c4ccccc4)cc3)nc2)cc1` (stereo partly shown) [Compound 957], the pEC50 under setting [1] was 5.60 to 6.10.
